Data published in US9090576B2, “2-substituted-p-quinone derivatives for treatment of oxidative stress diseases” (Edison Pharmaceuticals, Inc., priority 2008, dated 2015).

Assays:
Type in all cases: cell-based
[1] = tested on: Human dermal fibroblasts from Friedreich's Ataxia patients; assay: Rescue of BSO-stressed FRDA fibroblasts (Calcein AM viability); conditions: BSO-stressed FRDA fibroblasts (GM04078), less than about 150 nM, read-out: EC50, protection against FRDA
How it was run: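 Patient FRDA fibroblasts (GM04078) seeded at 3,000 cells/well, given serially diluted compound from a 150 μM master solution, then stressed next day with 1 mM BSO.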

[2] = tested on: human dermal fibroblasts from Huntington's patients; assay: Rescue of BSO-stressed fibroblasts from Huntington's patients (screen as Example A); conditions: Fibroblast, BSO-stressed Huntington's fibroblasts (GM 04281), less than about 150 nM, read-out: EC50, protection against Huntington's
How it was run: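 Coriell Huntington's line GM 04281 plated at 3,000 cells/well and attached overnight at 37 °C. Survival was read by Calcein AM (1.2 μM, 50-70 min, RT) fluorescence at 485/525 nm, giving EC50.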

[3] = tested on: human dermal fibroblasts from LHON patients; assay: Rescue of BSO-stressed fibroblasts from LHON patients (screen as Example A); conditions: Fibroblast, BSO-stressed LHON fibroblasts (GM03858), less than about 150 nM, read-out: EC50, protection against LHON
How it was run: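 LHON patient fibroblasts (Coriell GM03858) at 3,000 cells/well were pre-treated overnight with compounds serially diluted from a 150 μM master solution. Surviving cells were stained with 1.2 μM Calcein AM for 50-70 min at RT and read by fluorescence (485/525 nm), giving EC50.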

[4] = tested on: human dermal fibroblasts from Parkinson's Disease patients; assay: Rescue of BSO-stressed fibroblasts from Parkinson's Disease patients (screen as Example A); conditions: Fibroblast, BSO-stressed Parkinson's Disease fibroblasts (AG20439), less than about 150 nM, read-out: EC50, protection against PD
How it was run: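 Dermal fibroblasts from a Parkinson's Disease patient (Coriell AG20439) were plated at 3,000 cells/well, attached overnight and pre-incubated overnight with serially diluted compounds (150 μM master solution). Survival was read by 1.2 μM calcein AM (50–70 min, RT, 485/525 nm fluorescence) and converted to EC50.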

[5] = tested on: human dermal fibroblasts from CoQ10 deficient patients; assay: Rescue of BSO-stressed fibroblasts from CoQ10 deficient patients (screen similar to Example A); conditions: Fibroblast, BSO-stressed fibroblasts from CoQ10 deficient patients harboring a CoQ2 mutation, less than about 150 nM, read-out: EC50, protection against CoQ10 deficiency

Measured: EC50

CC1=C(C)C(=O)C(CCCC(=O)Nc2ccc(C#N)cc2)=C(C)C1=O [N-(4-cyanophenyl)-4-(2,4,5-trimethyl-3,6-dioxocyclohexa-1,4-dienyl)butanamide]
< 0.15 µM: all assays above

CC1=C(C)C(=O)C(CCCC(=O)NCc2ccc(F)cc2)=C(C)C1=O [N-(4-fluorobenzyl)-4-(2,4,5-trimethyl-3,6-dioxocyclohexa-1,4-dienyl)butanamide]
< 0.15 µM: all assays above

CC1=C(C)C(=O)C(CCCC(=O)NCCc2ccc(F)cc2)=C(C)C1=O [N-(4-fluorophenethyl)-4-(2,4,5-trimethyl-3,6-dioxocyclohexa-1,4-dienyl)butanamide]
< 0.15 µM: all assays above

CC1=C(C)C(=O)C(CCCC(=O)Nc2ccc(F)cc2)=C(C)C1=O [N-(4-fluorophenyl)-4-(2,4,5-trimethyl-3,6-dioxocyclohexa-1,4-dienyl)butanamide]
< 0.15 µM: all assays above

CC1=C(C)C(=O)C(CCCC(=O)N(C)c2ccc(F)cc2)=C(C)C1=O [N-(4-fluorophenyl)-N-methyl-4-(2,4,5-trimethyl-3,6-dioxocyclohexa-1,4-dienyl)butanamide]
< 0.15 µM: all assays above

CC1=C(C)C(=O)C(CCCC(=O)Nc2ccc3c(c2)OCO3)=C(C)C1=O [N-(benzo[d][1,3]dioxol-5-yl)-4-(2,4,5-trimethyl-3,6-dioxocyclohexa-1,4-dienyl)butanamide]
< 0.15 µM: all assays above

CCN(Cc1ccccc1)C(=O)CCCC1=C(C)C(=O)C(C)=C(C)C1=O [N-benzyl-N-ethyl-4-(2,4,5-trimethyl-3,6-dioxocyclohexa-1,4-dienyl)butanamide]
< 0.15 µM: all assays above

CC1=C(C)C(=O)C(CCCC(=O)N(Cc2ccccc2)C(C)C)=C(C)C1=O [N-benzyl-N-isopropyl-4-(2,4,5-trimethyl-3,6-dioxocyclohexa-1,4-dienyl)butanamide]
< 0.15 µM: all assays above

CC1=C(C)C(=O)C(CCCC(=O)N(C)Cc2ccccc2)=C(C)C1=O [N-benzyl-N-methyl-4-(2,4,5-trimethyl-3,6-dioxocyclohexa-1,4-dienyl)butanamide]
< 0.15 µM: all assays above

CC1=C(C)C(=O)C(CCCC(=O)N(C)c2ccccc2)=C(C)C1=O [N-methyl-N-phenyl-4-(2,4,5-trimethyl-3,6-dioxocyclohexa-1,4-dienyl)butanamide]
< 0.15 µM: all assays above

CC1=C(C)C(=O)C(CCCC(=O)Nc2ccc(C)cc2)=C(C)C1=O [N-p-tolyl-4-(2,4,5-trimethyl-3,6-dioxocyclohexa-1,4-dienyl)butanamide]
< 0.15 µM: all assays above

CC1=C(C)C(=O)C(CCCC(=O)Nc2ccccc2)=C(C)C1=O [N-phenyl-4-(2,4,5-trimethyl-3,6-dioxocyclohexa-1,4-dienyl)butanamide]
< 0.15 µM: all assays above
